Where two headings read alike, the source gives them in different places.
Experiments:
[1] = UV/vis absorption titration, apparent stability constant with Cu^2+; format: binding; settings: ligand 30 μM, DMSO/30 mM HEPES pH 7.4, I = 0.1 (NaNO3) (7/3), 37 °C, 1:1 complex
Method: (§1) All reagents and solvents were purchased at the highest commercial quality and were used without further purification. Anhydrous DMF was obtained by distillation from calcium hydride. All aqueous solutions were prepared using deionized and distilled water. Melting points were measured using a Yanaco MP-J3 Micro Melting Point apparatus and are uncorrected. UV/vis absorption spectra were recorded on a JASCO V-630 spectrophotometer at 37 °C. The UV/vis absorption titrations of 1 with metal ions were carried out by addition of 10 mM solutions of Zn(NO3)2, NiSO4, Co(NO3)2, Fe(NO3)2, and Al(NO3)3 in H2O and 10 mM solutions of Cu(NO3)2 in DMSO. The apparent stability constants of metal–ligand complexes (Ks) were calculated by using the Bind Works 1.0 software provided by CSC (Calorimetry Science Corp.), an interactive PC software for the analysis of Binding Isotherms on Isothermal Titration Calorimeters (ITCs), to which the change in absorption values obtained by the UV/vis absorption titrations are input.[62] IR spectra were measured with a PerkinElmer FT-IR spectrophotometer (Spectrum 100) at room temperature. ^1H (300 and 400 MHz) NMR spectra were recorded on a JEOL Always 300 spectrometer and a JEOL Always 400 spectrometer, respectively. Luminescence imaging studies were performed using a fluorescent microscope (Biorevo, BZ-9000, Keyence). […]

Jurkat cells = assay: MTT assay of Jurkat cells, effect of metal ions and incubation time on cytotoxicity of ligands; format: cell-based, human; settings: Homo sapiens, Jurkat, no metal
Method: Next, we examined the effect of complexation of 1, 2, BAPTA, and BAPTA-AM with metal ions such as Cu(NO3)2, Zn(NO3)2, FeSO4, Co(NO3)2, and NiSO4 on their cytotoxicity against Jurkat cells. Mixture of ligands and metal ions were incubated for 1 h at 37 °C, and added to Jurkat cells for incubation for 12, 24, and 48 h at [ligand] = 0.78–25 μM and [M^2+] = 1.71–37.5 μM ([ligand]: [M^2+] = 1:1.5). After that, MTT assays were carried out, as shown in Figure S3 of the Supporting Information.
IMR-90 cells in DMEM medium with 10% FBS (1.5 × 10^5 cells/mL) were seeded in to 96 well plates and incubated for 24 h at 37 °C, MTT assays with poly(bpy) ligands and their metal complexes (0–100 μM), cisplatin (0–100 μM), and actinomycin D (0–10 μM) were performed following the same procedure described above. These experiments were carried out at least three times. • (b) MTT assay in the presence of a caspase inhibitor. Jurkat cells were pre-treated with Z-VAD-fmk (15 μM) for 3 h, a general caspases inhibitor, followed by the treatment with 1 (1 μM), BABTA-AM (12.5 μM) and cisplatin (50 μM), respectively, for 24 h, and then MTT assay was carried out as described above. • (c) For evaluation of the effect of metal ions on the cytotoxicity of 1, 2, BAPTA, and BAPTA-AM, these ligands were incubated with metal ions such as Cu(NO3)2, Zn(NO3)2, FeSO4, Co(NO3)2, and NiSO4 for 1 h, respectively, and added to Jurkat cells. The whole mixtures were incubated for 12, 24, and 48 h at [ligand] = 0.78–25 μM and at [M^2+] = 1.71–37.5 μM ([ligand]/[M^2+] = 1:1.5). The MTT assays were conducted as described above.

[2] = UV/vis absorption titration, apparent stability constant with Al^3+; format: binding; settings: ligand 30 μM, DMSO/30 mM HEPES pH 7.4, I = 0.1 (NaNO3) (7/3), 37 °C
Text: Although simple comparison of the stability of metal complexes is difficult due to the different units for 1:1 complexation (M^–1) and 1:2 complexation (M^–2), it is likely that the thermodynamic stability of Co^2+-(1)2 and Fe^2+-(1)2 complexes are similar to that of Zn^2+-1, Ni^2+-1, and Cu^2+-1 complexes.[40]
as §1, with “The UV/vis absorption titrations of 1 with metal ions were carried out by addition of 10 mM solutions of Zn(NO3)2, NiSO4, Co(NO3)2, Fe(NO3)2, and Al(NO3)3 in H2O and 10 mM solutions of Cu(NO3)2 in DMSO.” left out, “respectively.” for “respectively. Luminescence imaging studies were performed using a fluorescent microscope (Biorevo, BZ-9000, Keyence).”

[3] = UV/vis absorption titration, apparent stability constant with Ni^2+; format: binding; settings: 37 °C, 1:1 complex
Method: as §1

With `c1ccc(-c2ccc(OCc3cc(COc4ccc(-c5ccccn5)nc4)cc(COc4ccc(-c5ccccn5)nc4)c3)cn2)nc1` [compound 1, 1,3,5-Tris(([2,2′-Bipyridin]-5-yloxy)methyl)benzene] the “apparent stability constant log Ks with Cu(NO3)2” value [1] was 7.29 ± 0.02 (1:1 complex), the EC50 (Jurkat cells; incubation 12 h (Figure 9), read-out: EC50 against Jurkat cells, metal-free ligand) was ~9000 nM and the EC50 (Jurkat cells; incubation 24 h (Figure 9b), read-out: EC50 against Jurkat cells, ligand alone) was 137 nM. The EC50 (Jurkat cells; incubation 48 h (Figure 9, S4), read-out: EC50 against Jurkat cells, metal-free ligand) was ~60 nM, the “apparent stability constant log Ks with Al(NO3)3” value [2] was <1 and the Kd ([3]; DMSO/30 mM HEPES pH 7.4 (7/3), read-out: dissociation constant Kd (= 1/Ks) of Ni^2+ complex) was 610 ± 20 nM. For the same compound, the “apparent stability constant log Ks with NiSO4” value ([3]; ligand 30 μM, DMSO/30 mM HEPES pH 7.4, I = 0.1 (NaNO3) (7/3)) was 6.21 ± 0.01 (1:1 complex).
